According to PMC6273627, “Extended N-Arylsulfonylindoles as 5-HT6 Receptor Antagonists: Design, Synthesis & Biological Evaluation” (Molecules, 2016):
Several values for one entry are separate records, joined by “and”; a condition that tells them apart may be missing. Equal entries are not always repeated. Where two headings read alike, the source gives them in different places.

Columns and labels:
5-HT6R = conditions: cited from earlier work
1H-NMR pKa determination = format: physicochemical; conditions: D2O solution; 1H-NMR titration in D2O, 298 K, corrected for H2O; piperazine nitrogen; read-out: pKa (pKa2)
Description: All NMR spectra were performed on a Bruker Avance III HD-400 MHz spectrometer at 298 K. The ^1H-NMR experiments were acquired using water suppression in order to suppress the residual HDO signal. Solutions of the 3b and 4g 2 mM in D2O were prepared adding acetone 200 μM as an internal standard. The titrations were carried out progressively in a single NMR sample for each compound. The pH was adjusted with 0.1 mol/L of NaOH and 0.1 mol/L HCl, to cover the pH ranges 4.65–9.11 and 5.58–9.46 for 3b and 4g solutions, respectively. […] The chemical shifts (δ ppm) of the piperazine methylene protons were plotted against the pH for both compounds. The pKa were obtained from the inflection point of the resulting sigmoidal curve, for each compound.
The signal to upfield of the doublet of methylene protons of the piperazine ring was used to plot δ ppm vs. pH. In this case, the pKa^D correspond to inflection point in the resulting sigmoidal curve from the plot δ ppm vs. pH, for each compound (Figure 7B,D). […] The pKa value determined in D2O was corrected for H2O using the Krezel et al. equation [59].
The chemical shift is affected by the chemical and, consequently, the magnetic environment. Therefore, the protonation of basic species such as the nitrogen atoms in piperazine ring induce important changes in the chemical environment in the adjacent proton groups. […]

[1] = target: T1, cloned human 5-HT6-expressing cell line (HTS111RTA) (Homo sapiens, UniProt P50406); experiment: intracellular calcium mobilization assay (antagonism of 2-Me 5-HT); format: cell-based; conditions: for IC50: antagonism of 2-Me-5-HT (500 nM) intracellular calcium mobilization
T1 construct: host or cells: purchased ready-to-assay cell line
T1 sequence (P50406 whole entry): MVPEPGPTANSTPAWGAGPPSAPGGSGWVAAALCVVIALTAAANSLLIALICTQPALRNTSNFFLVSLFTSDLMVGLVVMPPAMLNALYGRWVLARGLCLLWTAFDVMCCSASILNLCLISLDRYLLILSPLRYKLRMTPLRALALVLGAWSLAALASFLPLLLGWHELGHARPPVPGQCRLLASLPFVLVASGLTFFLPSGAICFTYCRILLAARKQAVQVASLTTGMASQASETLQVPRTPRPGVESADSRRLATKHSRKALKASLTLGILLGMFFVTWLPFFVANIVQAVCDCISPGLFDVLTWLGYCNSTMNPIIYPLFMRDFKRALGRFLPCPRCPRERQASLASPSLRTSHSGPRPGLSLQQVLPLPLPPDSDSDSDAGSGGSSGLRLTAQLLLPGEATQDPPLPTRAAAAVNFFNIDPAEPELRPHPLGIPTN

Row | SMILES | melting point | other results
1 | CC(C)c1ccc(S(=O)(=O)n2cc(N3CCN(C)CC3)c3ccccc32)cc1 [IV] | – | pKi (5-HT6R; Figure 1, known ligands): 8.47
2 | COc1ccc2c(c1)c(CCN(C)C)cn2S(=O)(=O)c1ccccc1 [I] | – | pKi (5-HT6R; Figure 1, known ligands): 8.64
3 | COc1ccccc1N1CCN(CC(O)c2cn(S(=O)(=O)c3ccc(I)cc3)c3ccccc23)CC1 (stereo not drawn) [Compound 4g, 1-(1-(4-Iodophenylsulfonyl)-1H-indol-3-yl)-2-(4-(2-methoxyphenyl)piperazin-1-yl)ethanol] | 109 to 110 °C | pKa (1H-NMR pKa determination): 6.69; inhibition of 2-Me-5HT-induced Ca2+ mobilization [1]: strong inhibition; IC50 [1]: 204 nM
4 | O=S(=O)(c1cccc2ccccc12)n1cc(C(O)CN2CCN(c3ccccn3)CC2)c2ccccc21 (stereo not drawn) [Compound 4i, 1-(1-(Naphthalen-1-ylsulfonyl)-1H-indol-3-yl)-2-(4-(pyridin-2-yl)piperazin-1-yl)ethanol] | 80 to 81 °C | IC50 [1]: 399 nM
5 | O=C(CN1CCN(c2ncccn2)CC1)c1cn(S(=O)(=O)c2cccc3ccccc23)c2ccccc12 [Compound 3k, 1-(1-(Naphthalen-1-ylsulfonyl)-1H-indol-3-yl)-2-(4-(pyrimidin-2-yl)piperazin-1-yl)ethanone] | 88 to 89 °C | –
6 | CN1CCC(c2cn(S(=O)(=O)c3ccc(F)cc3)c3ccccc23)C1 (stereo not drawn) [II] | – | pKi (5-HT6R; Figure 1, known ligands): 8.70
7 | Cc1[nH]c2ccc(O)cc2c1CCN [2-Me 5-HT, reference compound] | – | EC50 [1]: 119 nM; pKi (5-HT6R; Figure 1, known ligands): 7.34
8 | O=C(CN1CCN(c2ncccn2)CC1)c1cn(S(=O)(=O)c2ccc(Cl)cc2)c2ccccc12 [Compound 3d, 1-(1-(4-Chlorophenylsulfonyl)-1H-indol-3-yl)-2-(4-(pyrimidin-2-yl)piperazin-1-yl)ethanone] | 168 to 169 °C | –
9 | O=S(=O)(c1cccc2ccccc12)n1cc(C(O)CN2CCN(c3ncccn3)CC2)c2ccccc21 (stereo not drawn) [Compound 4k, 1-(1-(Naphthalen-1-ylsulfonyl)-1H-indol-3-yl)-2-(4-(pyrimidin-2-yl)piperazin-1-yl)ethanol] | 82 to 83 °C | IC50 [1]: 688 nM
10 | COc1ccccc1N1CCN(CC(O)c2cn(S(=O)(=O)c3cccc4ccccc34)c3ccccc23)CC1 (stereo not drawn) [Compound 4j, 2-(4-(2-Methoxyphenyl)piperazin-1-yl)-1-(1-(naphthalen-1-ylsulfonyl)-1H-indol-3-yl)ethanol] | – | inhibition of 2-Me-5HT-induced Ca2+ mobilization [1]: strong inhibition; IC50 [1]: 32 nM
11 | O=S(=O)(c1ccc(F)cc1)n1cc(C(O)CN2CCN(c3ncccn3)CC2)c2ccccc21 (stereo not drawn) [Compound 4e, 1-(1-(4-Fluorophenylsulfonyl)-1H-indol-3-yl)-2-(4-(pyrimidin-2-yl)piperazin-1-yl)ethanol] | 72 to 73 °C | –
12 | COc1ccc(S(=O)(=O)n2cc(C(O)CN3CCOCC3)c3ccccc32)cc1 (stereo not drawn) [Compound 4l, 1-(1-(4-Methoxyphenylsulfonyl)-1H-indol-3-yl)-2-morpholinoethanol] | 149 to 152 °C | –
13 | COc1ccccc1N1CCNCC1 [2-methoxyphenyl piperazine] | – | 5-HT6R affinity compared with the compounds here reported (5-HT6R): substantially lower affinity
14 | COc1ccccc1N1CCN(CC(=O)c2cn(S(=O)(=O)c3ccc(C)cc3)c3ccccc23)CC1 [Compound 3b, 2-(4-(2-Methoxyphenyl)piperazin-1-yl)-1-(1-tosyl-1H-indol-3-yl)ethanone] | 132.3 to 133.6 °C and 132 to 134 °C | pKa (1H-NMR pKa determination): 5.72
15 | O=C(CN1CCN(c2ncccn2)CC1)c1cn(S(=O)(=O)c2ccc(F)cc2)c2ccccc12 [Compound 3e, 1-(1-(4-Fluorophenylsulfonyl)-1H-indol-3-yl)-2-(4-(pyrimidin-2-yl)piperazin-1-yl)ethanone] | 145 to 146 °C | –
16 | Cc1ccc(S(=O)(=O)n2cc(C(=O)CN3CCN(c4ccccn4)CC3)c3ccccc32)cc1 [Compound 3a, 2-(4-(Pyridyl-2-yl)piperazin-1-yl)-1-(1-tosyl-1H-indol-3-yl)ethanone] | 74.9 to 75.7 °C and 75 to 76 °C | –
17 | COc1ccccc1N1CCN(CC(=O)c2cn(S(=O)(=O)c3ccc(I)cc3)c3ccccc23)CC1 [Compound 3g, 1-(1-(4-Iodophenylsulfonyl)-1H-indol-3-yl)-2-(4-(2-methoxyphenyl)piperazin-1-yl)ethanone] | 182 to 183 °C | –

Row | SMILES | melting point | other results
18 | O=C(CN1CCN(c2ncccn2)CC1)c1cn(S(=O)(=O)c2ccc(I)cc2)c2ccccc12 [Compound 3h, 1-(1-(4-Iodophenylsulfonyl)-1H-indol-3-yl)-2-(4-(pyrimidin-2-yl)piperazin-1-yl)ethanone] | 184 to 185 °C | –
19 | CN1CC(Cl)=C(c2cn(S(=O)(=O)c3ccccc3)c3ccccc23)C1 [VI] | – | pKi (5-HT6R; Figure 1, known ligands): 8.57
20 | O=C(CN1CCN(c2ccccn2)CC1)c1cn(S(=O)(=O)c2cccc3ccccc23)c2ccccc12 [Compound 3i, 1-(1-(Naphthalen-1-ylsulfonyl)-1H-indol-3-yl)-2-(4-(pyridin-2-yl)piperazin-1-yl)ethanone] | 76 to 77 °C | –
21 | CCN(CC)C(=O)[C@@H]1C=C2c3cccc4[nH]cc(c34)C[C@H]2N(C)C1 [LSD] | – | pKi (5-HT6R; Figure 1, known ligands): 8.94
22 | O=S(=O)(c1ccc(I)cc1)n1cc(C(O)CN2CCN(c3ncccn3)CC2)c2ccccc21 (stereo not drawn) [Compound 4h, 1-(1-(4-Iodophenylsulfonyl)-1H-indol-3-yl)-2-(4-(pyrimidin-2-yl)piperazin-1-yl)ethanol] | 171 to 172 °C | IC50 [1]: 75 nM
23 | O=S(=O)(c1ccc(I)cc1)n1cc(C(O)CN2CCN(c3ccccn3)CC2)c2ccccc21 (stereo not drawn) [Compound 4f, 1-(1-(4-Iodophenylsulfonyl)-1H-indol-3-yl)-2-(4-(pyridin-2-yl)piperazin-1-yl)ethanol] | 157 to 158 °C | IC50 [1]: 24600 nM
24 | O=S(=O)(c1ccc(F)cc1)n1cc(C2=CCCNC2)c2ccccc21 [III] | – | pKi (5-HT6R; Figure 1, known ligands): 8.70
25 | O=C(CN1CCN(c2ccccn2)CC1)c1cn(S(=O)(=O)c2ccc(I)cc2)c2ccccc12 [Compound 3f, 1-(1-(4-Iodophenylsulfonyl)-1H-indol-3-yl)-2-(4-(pyridin-2-yl)piperazin-1-yl)ethanone] | 179 to 180 °C | –
26 | O=C(CBr)c1c[nH]c2ccccc12 [Compound 1] | 160.3 to 161 °C | pKi (5-HT6R; Table 2 reference value): 8.70 [1]
27 | Cc1ccc(S(=O)(=O)n2cc(C(O)CN3CCN(c4ncccn4)CC3)c3ccccc32)cc1 (stereo not drawn) [Compound 4c, 2-(4-(Pyrimidin-2-yl)piperazin-1-yl)-1-(1-tosyl-1H-indol-3-yl)ethanol] | 81 to 82 °C | –
28 | CN1CCC[C@@H]1Cc1cn(S(=O)(=O)c2ccccc2)c2ccccc12 [V] | – | pKi (5-HT6R; Figure 1, known ligands): 9.52
29 | COc1ccccc1N1CCN(CC(O)c2cn(S(=O)(=O)c3ccc(C)cc3)c3ccccc23)CC1 (stereo not drawn) [Compound 4b, 2-(4-(2-Methoxyphenyl)piperazin-1-yl)-1-(1-tosyl-1H-indol-3-yl)ethanol] | 86.3 to 86.9 °C and 86 to 87 °C | –
30 | Cc1ccc(S(=O)(=O)n2cc(C(O)CN3CCN(c4ccccn4)CC3)c3ccccc32)cc1 (stereo not drawn) [Compound 4a, 2-(4-(Pyridin-2-yl)piperazin-1-yl)-1-(1-tosyl-1H-indol-3-yl)ethanol] | 72.4 to 73.9 °C and 72 to 74 °C | IC50 [1]: 783 nM
31 | O=S(=O)(c1ccc(Cl)cc1)n1cc(C(O)CN2CCN(c3ncccn3)CC2)c2ccccc21 (stereo not drawn) [Compound 4d, 1-(1-(4-Chlorophenylsulfonyl)-1H-indol-3-yl)-2-(4-(pyrimidin-2-yl)piperazin-1-yl)ethanol] | 76 to 77 °C and 81 to 82 °C | –
32 | COc1ccccc1N1CCN(CC(=O)c2cn(S(=O)(=O)c3cccc4ccccc34)c3ccccc23)CC1 [Compound 3j, 2-(4-(2-Methoxyphenyl)piperazin-1-yl)-1-(1-(naphthalen-1-ylsulfonyl)-1H-indol-3-yl)ethanone] | 74 to 75 °C | –
33 | Cc1ccc(S(=O)(=O)n2cc(C(=O)CN3CCN(c4ncccn4)CC3)c3ccccc32)cc1 [Compound 3c, 2-(4-(Pyrimidin-2-yl)piperazin-1-yl)-1-(1-tosyl-1H-indol-3-yl)ethanone] | 133 to 134 °C | –
